According to US20240325340A1, “ISOFORM SPECIFIC AGONISTS TARGETING AKT KINASE” (Thomas Jefferson University, priority 2021, published 2024):
“Also recorded” adds a separate entry of the source.

What was measured:
Akt2-LT WT = molecular target: T1, Akt2-LT WT (Homo sapiens, UniProt P31751); assay: Phosphorylation of heterologously expressed Akt2-LT WT in H9C2 myoblasts; assay type: cell-based; conditions: serum-free media, 2 hr
T1 construct: expressed in transfected cells; host or cells: H9C2 myoblasts
Protocol: (§1) FIGS. 2A-2B: illustrate the finding that T625's position 6 analogues differentially activate Akt and induce cellular toxicity. FIG. 2A: To distinguish heterologous-expressed Akt from endogenous Akt, a 41 amino acid large tag containing the HA-epitope was fused with wild type Akt2 (Akt2-LT WT). H9C2 myoblasts over-expressing Akt2-LT WT were treated with insulin or indicated compounds in serum-free media for 2 hr. Phosphorylation of T309 and total Akt2 are shown. FIG. 2B: Cell images show A549 AT2 cell morphology after 24 hr of drug treatment.

A549 AT2 cell = A549 AT2 cell morphology after 24 hr of drug treatment; assay type: cell-based, human; conditions: A549 AT2 cells
Protocol: as §1

A549 cells = assay: Cytotoxicity by release of lactate dehydrogenase (LDH) in A549 cells; assay type: cell-based, human; conditions: 40 μM, 24 hours, serum-free media
Protocol: Cytotoxicity was determined by the release of lactate dehydrogenase (LDH) into cell culture media. A549 cells were incubated with 40 μM of each compound for 24 hours in serum-free media (n=3 for each compound). FIG. 8B: A visual assessment of cell morphology after 24 hrs treatment with 40 μM of each compound in serum-free media. 100× images are shown.

Hacat cells [1] = assay: Cellular toxicity / cell morphology in Hacat cells after 24 hrs; assay type: cell-based, human; conditions: 40 μM
Hacat cells [2] = assay: Human keratinocyte migration (cell-free gap) assay; assay type: cell-based; conditions: 40 μM, 22 hr, serum-starved
Protocol: FIGS. 11A-11B illustrates the finding that Akt activators in human keratinocyte cell line induce VEGF secretion and enhanced cell migration. FIG. 11A: Human keratinocyte line, HaCat cells, was incubated with 20 μM of each Akt activators for 24 hours. Insulin (3.5 μg/ml) and IGF1 (100 ng/mL) treatment were used as positive control. […] HaCaT cells were plated into silicone insert molds with a […] defined cell-free gap (Ibidi) and serum-starved overnight. Then, the mold barrier was removed and cells were treated with 40 μM T620. After 22 hr, the gap spaces were imaged at 100×. Two images of control and four images of T620 treated gap spaces are shown.

Akt [3] = assay: Mouse cardiac ischemia-reperfusion injury model, Akt activation in heart; assay type: in vivo; conditions: directly injected or intraperitoneally injected after ischemic-ligation
Protocol: FIG. 13A: A schematic of ischemic-reperfusion procedure indicating drug injection time and heart harvest time. FIG. 13B: Illustrates immunoblots of pS473, Akt phospho-substrate, pPRAS40 and GAPDH in the WES auto-western system. After ischemic-ligation, T625 (0.8 μg in 20 μl PBS) were directly injected at three spots of exposed ventricular wall. Injected insulin was used as a control. FIG. 13C: Illustrates immunoblots of pT308, total Akt (tAkt) and GAPDH and quantified pT308/tAkt ratio. After ischemic-ligation, T620 and T625 were directly injected or intraperitoneally injected.
(§2) A FlexiVent system (SCIREQ) was used to deliver Akt activator, T625, directly to mouse lung. This procedure closely mimics the clinical application of inhaled insulin. […] Akt activators were also administered in the setting of mouse cardiac ischemia-reperfusion injury model (FIGS. 13A-13C). T625 was directly injected into the left ventricular free wall at the time of ischemic ligation of exteriorized heart. Also, to mimic clinical use, (IP) Akt activators were intraperitoneally injected within 10 min after ischemia initiation. It was shown that both directly applied and intraperitoneally injected Akt activators activated Akt in the heart. Finally, a splinted murine excisional wound model that mimic human wound healing was used. […]

Akt [4] = assay: Splinted murine excisional skin wound model, topical treatment; assay type: in vivo, mouse; conditions: 20 μL of 40 μM applied within the wound silicone circle, 20 min
Protocol: FIGS. 14A-14B illustrate the use of an Akt activator as topical treatment for healing mouse skin wound. […] 20 μL of indicated compounds were applied within the skin wound silicone circle for 20 min. Wound tissues were harvested and blotted with anti-Akt pS473 and GAPDH using the Proteinsimple WES system. Growth factor (GF) mixture (insulin, PDGF and IGF1 growth factor) or 40 μM T620 in corn oil or in PBS as vehicles. […] Images of WT mouse skin wound after vehicle (0.7% DMSO in PBS) or 40 μM T620 treatment at Day 3. Wound images and hematoxylin sections showing wound edge and wound bed are shown. Scale bar=400 μm.
as §2

cells = assay: Cellular toxicity (cells not specified); assay type: cell-based

T1 sequence (P31751 whole entry): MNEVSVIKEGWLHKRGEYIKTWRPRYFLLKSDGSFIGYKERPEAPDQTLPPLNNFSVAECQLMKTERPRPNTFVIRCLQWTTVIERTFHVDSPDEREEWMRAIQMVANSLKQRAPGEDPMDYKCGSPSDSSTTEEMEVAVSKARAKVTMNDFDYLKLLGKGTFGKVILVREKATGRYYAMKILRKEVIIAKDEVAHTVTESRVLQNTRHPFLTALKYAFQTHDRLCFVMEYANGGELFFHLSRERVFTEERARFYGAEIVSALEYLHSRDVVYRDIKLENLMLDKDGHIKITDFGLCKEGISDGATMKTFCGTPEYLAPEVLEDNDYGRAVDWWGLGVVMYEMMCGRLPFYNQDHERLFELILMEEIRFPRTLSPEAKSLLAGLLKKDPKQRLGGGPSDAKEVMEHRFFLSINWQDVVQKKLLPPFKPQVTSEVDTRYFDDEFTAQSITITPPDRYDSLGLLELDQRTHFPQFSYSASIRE

N#CC1=C(N)Oc2ccc([N+](=O)[O-])cc2C1C(C#N)C#N (centres unmarked) [T620, 2-(2-amino-3-cyano-6-nitro-4H-chromen-4-yl)propanedinitrile]
Akt activation in cells (phosphorylation of T309 of Akt2-LT WT) (Akt2-LT WT): preserved Akt activation; also recorded: activate Akt | cellular toxicity (cell morphology) (A549 AT2 cell): greatly reduced toxicity | cellular toxicity (LDH release) (A549 cells): low toxicity; also recorded: failed to show significant cellular toxicity; also recorded: reduced cellular toxicity | cellular toxicity (Hacat cells [1]): failed to show significant cellular toxicity | keratinocyte migration (Hacat cells [2]): enhance human keratinocyte migration | Akt activation in mouse heart during ischemia-reperfusion (Akt [3]): enhanced Akt activation in mouse heart | Akt activation (pS473) within mouse skin wounds (Akt [4]): activated Akt within mouse skin wounds | cellular toxicity (cells): reduced toxicity
